Values of other authors as cited in EP2566463B1, “EXTENDED RELEASE THIOCO[…]” (Ali Raif Ilac Sanayi Ve Ticaret A.S., priority 2010, dated 2011).

Tests used:
[1] = conventional, immediate release forms of thiocolchicoside
[2] = conventional, immediate release forms

Row | Compound | Elimination half life in plasma [1] | muscle relaxing effect starts [2]
1 | COc1c(O)cc2c(c1OC)-c1ccc(SC)c(=O)cc1C(NC(C)=O)CC2 (stereo not drawn) [3-Desmethylthiocolchicine] | 4 to 5 h | –
2 | N-[3-(β-D-glucopyranosyloxy)-1,2-dimethoxy-10-(methylthio)-9-oxo-5,6,7,9-tetrahydrobenzo[a]heptalen-7-yl]acetamide [thiocolchicoside] | 4 to 5 h | 1 to 2 h
